Laboratory results taken from ChEMBL document CHEMBL3885881, “DrugMatrix”.

Species: Rattus norvegicus
Assay: DrugMatrix - Regimen: Daily Repeat
Format: toxicity, organism-based, Sprague-Dawley
Design: regimen Daily Repeat, gender Male, age 6-8 weeks
Settings: in vivo, iv, vehicle 100 % SALINE; for ABSOLUTE BASOPHIL / ABSOLUTE EOSINOPHIL / ABSOLUTE LYMPHOCYTE / ABSOLUTE MONOCYTE / ABSOLUTE SEGMENTED NEUTROPHIL / BASOPHIL / EOSINOPHIL / ERYTHROCYTE COUNT / HEMATOCRIT / HEMOGLOBIN / LEUKOCYTE COUNT / LYMPHOCYTE / MEAN CORPUSCULAR HEMOGLOBIN / MEAN CORPUSCULAR HEMOGLOBIN CONCENTRATION / MEAN CORPUSCULAR VOLUME / MONOCYTE / NEUTROPHIL / NUCLEATED RED BLOOD CELLS / PLATELET COUNT: tissue Blood; for ALANINE AMINOTRANSFERASE / ALBUMIN / ALKALINE PHOSPHATASE / ASPARTATE AMINOTRANSFERASE / BLOOD UREA NITROGEN / CARBON DIOXIDE / CHLORIDE / CHOLESTEROL / CREATINE PHOSPHOKINASE / CREATININE / GLUCOSE / LACTATE DEHYDROGENASE / LIPASE / PHOSPHORUS / POTASSIUM / SODIUM / TOTAL BILIRUBIN / TOTAL PROTEIN / URIC ACID: tissue Plasma
[1] = 200 mg/kg, 120 h, dose level Low, time 5 day
[2] = 800 mg/kg, 72 h, dose level High, time 3 day
[3] = 800 mg/kg, 120 h, dose level High, time 5 day

CC1(C)S[C@@H]2[C@H](NC(=O)[C@H](NC(=O)N3CCNC3=O)c3ccccc3)C(=O)N2[C@H]1C(=O)O [AZLOCILLIN]
ABSOLUTE BASOPHIL [1]: 0 CELLS/uL | ABSOLUTE EOSINOPHIL [1]: 0 CELLS/uL | ABSOLUTE LYMPHOCYTE [1]: 10606.67 CELLS/uL | ABSOLUTE MONOCYTE [1]: 46.67 CELLS/uL | ABSOLUTE SEGMENTED NEUTROPHIL [1]: 980 CELLS/uL | BASOPHIL [1]: 0% | EOSINOPHIL [1]: 0% | ERYTHROCYTE COUNT [1]: 5.98 x10E6/uL | HEMATOCRIT [1]: 35.9% | HEMOGLOBIN [1]: 14.17 G/DL | LEUKOCYTE COUNT [1]: 11.63 x10E3/uL | LYMPHOCYTE [1]: 91.33% | MEAN CORPUSCULAR HEMOGLOBIN [1]: 23.7 pg | MEAN CORPUSCULAR HEMOGLOBIN CONCENTRATION [1]: 39.5 G/DL | MEAN CORPUSCULAR VOLUME [1]: 60.07 fL | MONOCYTE [1]: 0.33% | NEUTROPHIL [1]: 8.33% | NUCLEATED RED BLOOD CELLS [1]: 0.33 /100WBC | PLATELET COUNT [1]: 1262 x10E3/uL | ALANINE AMINOTRANSFERASE [1]: 76 u/L | ALBUMIN [1]: 4.17 G/DL | ALKALINE PHOSPHATASE [1]: 302.33 u/L | ASPARTATE AMINOTRANSFERASE [1]: 91.67 u/L | BLOOD UREA NITROGEN [1]: 17.67 mg/dL | CARBON DIOXIDE [1]: 25.67 mmol/L | CHLORIDE [1]: 101 MEQ/L | CHOLESTEROL [1]: 73 mg/dL | CREATINE PHOSPHOKINASE [1]: 333.33 u/L | CREATININE [1]: 0.19 mg/dL | GLUCOSE [1]: 172.67 mg/dL | LACTATE DEHYDROGENASE [1]: 301 u/L | LIPASE [1]: 9.33 u/L | PHOSPHORUS [1]: 11.1 mg/dL | POTASSIUM [1]: 5.74 MEQ/L | SODIUM [1]: 144.37 MEQ/L | TOTAL BILIRUBIN [1]: 0.13 mg/dL | TOTAL PROTEIN [1]: 6.33 G/DL | URIC ACID [1]: 1.6 mg/dL | ABSOLUTE BASOPHIL [2]: 0 CELLS/uL | ABSOLUTE EOSINOPHIL [2]: 64.67 CELLS/uL | ABSOLUTE LYMPHOCYTE [2]: 11014.33 CELLS/uL | ABSOLUTE MONOCYTE [2]: 68.67 CELLS/uL | ABSOLUTE SEGMENTED NEUTROPHIL [2]: 1119 CELLS/uL | BASOPHIL [2]: 0% | EOSINOPHIL [2]: 0.33% | ERYTHROCYTE COUNT [2]: 5.5 x10E6/uL | HEMATOCRIT [2]: 34.53% | HEMOGLOBIN [2]: 13.63 G/DL | LEUKOCYTE COUNT [2]: 12.27 x10E3/uL | LYMPHOCYTE [2]: 90.67% | MEAN CORPUSCULAR HEMOGLOBIN [2]: 24.87 pg | MEAN CORPUSCULAR HEMOGLOBIN CONCENTRATION [2]: 39.5 G/DL | MEAN CORPUSCULAR VOLUME [2]: 62.9 fL | MONOCYTE [2]: 0.67% | NEUTROPHIL [2]: 8.33% | NUCLEATED RED BLOOD CELLS [2]: 0 /100WBC | PLATELET COUNT [2]: 1200 x10E3/uL | ALANINE AMINOTRANSFERASE [2]: 47.33 u/L | ALBUMIN [2]: 4.13 G/DL | ALKALINE PHOSPHATASE [2]: 350 u/L | ASPARTATE AMINOTRANSFERASE [2]: 79.33 u/L | BLOOD UREA NITROGEN [2]: 15.67 mg/dL | CARBON DIOXIDE [2]: 32.67 mmol/L | CHLORIDE [2]: 98.33 MEQ/L | CHOLESTEROL [2]: 83 mg/dL | CREATINE PHOSPHOKINASE [2]: 313.33 u/L | CREATININE [2]: 0.15 mg/dL | GLUCOSE [2]: 135.67 mg/dL | LACTATE DEHYDROGENASE [2]: 118 u/L | LIPASE [2]: 9.67 u/L | PHOSPHORUS [2]: 10.5 mg/dL | POTASSIUM [2]: 6.4 MEQ/L | SODIUM [2]: 143.1 MEQ/L | TOTAL BILIRUBIN [2]: 0.23 mg/dL | TOTAL PROTEIN [2]: 5.9 G/DL | URIC ACID [2]: 1.33 mg/dL | ABSOLUTE BASOPHIL [3]: 0 CELLS/uL | ABSOLUTE EOSINOPHIL [3]: 0 CELLS/uL | ABSOLUTE LYMPHOCYTE [3]: 11750 CELLS/uL | ABSOLUTE MONOCYTE [3]: 375 CELLS/uL | ABSOLUTE SEGMENTED NEUTROPHIL [3]: 375 CELLS/uL | BASOPHIL [3]: 0% | EOSINOPHIL [3]: 0% | ERYTHROCYTE COUNT [3]: 6.36 x10E6/uL | HEMATOCRIT [3]: 36.8% | HEMOGLOBIN [3]: 14.2 G/DL | LEUKOCYTE COUNT [3]: 12.5 x10E3/uL | LYMPHOCYTE [3]: 94% | MEAN CORPUSCULAR HEMOGLOBIN [3]: 22.3 pg | MEAN CORPUSCULAR HEMOGLOBIN CONCENTRATION [3]: 38.6 G/DL | MEAN CORPUSCULAR VOLUME [3]: 57.9 fL | MONOCYTE [3]: 3% | NEUTROPHIL [3]: 3% | NUCLEATED RED BLOOD CELLS [3]: 0 /100WBC | PLATELET COUNT [3]: 1139 x10E3/uL | ALANINE AMINOTRANSFERASE [3]: 42 u/L | ALBUMIN [3]: 3.7 G/DL | ALKALINE PHOSPHATASE [3]: 225 u/L | ASPARTATE AMINOTRANSFERASE [3]: 68 u/L | BLOOD UREA NITROGEN [3]: 22 mg/dL | CARBON DIOXIDE [3]: 25 mmol/L | CHLORIDE [3]: 102 MEQ/L | CHOLESTEROL [3]: 82 mg/dL | CREATINE PHOSPHOKINASE [3]: 168 u/L | CREATININE [3]: 0.27 mg/dL | GLUCOSE [3]: 198 mg/dL | LACTATE DEHYDROGENASE [3]: 104 u/L | LIPASE [3]: 9 u/L | PHOSPHORUS [3]: 10.1 mg/dL | POTASSIUM [3]: 5.6 MEQ/L | SODIUM [3]: 144.4 MEQ/L | TOTAL BILIRUBIN [3]: 0.2 mg/dL | TOTAL PROTEIN [3]: 6.1 G/DL | URIC ACID [3]: 2.2 mg/dL
